The target in assay [1] is T1, N-methyl-D-aspartate (NMDA) receptor containing the NR2B subunit (Rattus norvegicus, UniProt P35439+Q00960).
T1 construct: Membranes were prepared by homogenization of the whole brain minus cerebellum and medulla oblongata; from tissue; host or cells: rat whole brain minus cerebellum and medulla oblongata, membranes
As to the kind of experiment: 3H-Ro 25-6981 binding (displacement) to rat brain membranes. Further details: species or system rat (male Fullinsdorf albino). Conditions: 3H-Ro 25-6981 5 nM, 2 hours at 4° C., pH 7.4, rat whole brain minus cerebellum and medulla oblongata. The text has this: In the following test RO 25-6981 ([R-(R*,S*)]-a-(4-Hydroxy-phenyl)-b-methyl-4-(phenyl-methyl)-1-piperidine propanol)has been used as a high and selective blocker of N-methyl-D-aspartate (NMDA) receptor containing the NR2B subjunit. The interaction of RO 25-6981 with NMDA receptors is characterized by the described test in vitro.
3H-Ro 25-6981 binding (Ro 25-6981 is [R-(R*,S*)]-a-(4-Hydroxy-phenyl)-b-methyl-4-(phenyl-methyl)-1-piperidine propanol)
Male Fullinsdorf albino rats weighing between 150-200 g were used. Membranes were prepared by homogenization of the whole brain minus cerebellum and medulla oblongata with a Polytron (10.000 rpm, 30 seconds), in 25 volumes of a cold Tris-HCl 50 mM, EDTA 10 mM, pH 7.1 buffer. The homogenate was centrifuged at 48.000 g for 10 minutes at 4° C. The pellet was resuspended using the Polytron in the same volume of buffer and the homogenate was incubated at 37° C. for 10 minutes. After centrifugation the pellet was homogenized in the same buffer and frozen at -80° C. for at least 16 hours but not more than 10 days. For the binding assay the homogenate was thawed at 37° C., centrifuged and the pellet was washed three times as above in a Tris-HCl 5 mM, pH 7.4 cold buffer. The final pellet was resuspended in the same buffer and used at a final concentration of 200 μg of protein/ml.
3H-Ro 25-6981 binding experiments were performed using a Tris-HCl 50 mM, pH 7.4 buffer. For displacement experiments 5 nM of 3H-Ro 25-6981 were used and non specific binding was measured using 10 μm of tetrahydroisoquinoline and usually it accounts for 10% of the total. The incubation time was 2 hours at 4° C. and the assay was stopped by filtration on Whatmann GF/B glass fiber filters (Unifilter-96, Packard, Zurich, Switzerland). The filters were washed 5 times with cold buffer. The radioactivity on the filter was counted on a Packard Top-count microplate scintillation counter after addition of […] of microscint 40 (Canberra Packard S. A., Zurich, Switzerland).
The effects of compounds were measured using a minimum of 8 concentrations and repeated at least once. The pooled normalized values were analyzed using a non-linear regression calculation program which provide IC50 with their relative upper and lower 95% confidence limits (RS1, BBN, USA).

Another assay concerns NMDA receptors. Conditions: Journ. of Pharmacology, Vol. 283, No.8, 1285-1297; cited from earlier work.

T1 sequence (Q00960 27-1482, other chains not shown): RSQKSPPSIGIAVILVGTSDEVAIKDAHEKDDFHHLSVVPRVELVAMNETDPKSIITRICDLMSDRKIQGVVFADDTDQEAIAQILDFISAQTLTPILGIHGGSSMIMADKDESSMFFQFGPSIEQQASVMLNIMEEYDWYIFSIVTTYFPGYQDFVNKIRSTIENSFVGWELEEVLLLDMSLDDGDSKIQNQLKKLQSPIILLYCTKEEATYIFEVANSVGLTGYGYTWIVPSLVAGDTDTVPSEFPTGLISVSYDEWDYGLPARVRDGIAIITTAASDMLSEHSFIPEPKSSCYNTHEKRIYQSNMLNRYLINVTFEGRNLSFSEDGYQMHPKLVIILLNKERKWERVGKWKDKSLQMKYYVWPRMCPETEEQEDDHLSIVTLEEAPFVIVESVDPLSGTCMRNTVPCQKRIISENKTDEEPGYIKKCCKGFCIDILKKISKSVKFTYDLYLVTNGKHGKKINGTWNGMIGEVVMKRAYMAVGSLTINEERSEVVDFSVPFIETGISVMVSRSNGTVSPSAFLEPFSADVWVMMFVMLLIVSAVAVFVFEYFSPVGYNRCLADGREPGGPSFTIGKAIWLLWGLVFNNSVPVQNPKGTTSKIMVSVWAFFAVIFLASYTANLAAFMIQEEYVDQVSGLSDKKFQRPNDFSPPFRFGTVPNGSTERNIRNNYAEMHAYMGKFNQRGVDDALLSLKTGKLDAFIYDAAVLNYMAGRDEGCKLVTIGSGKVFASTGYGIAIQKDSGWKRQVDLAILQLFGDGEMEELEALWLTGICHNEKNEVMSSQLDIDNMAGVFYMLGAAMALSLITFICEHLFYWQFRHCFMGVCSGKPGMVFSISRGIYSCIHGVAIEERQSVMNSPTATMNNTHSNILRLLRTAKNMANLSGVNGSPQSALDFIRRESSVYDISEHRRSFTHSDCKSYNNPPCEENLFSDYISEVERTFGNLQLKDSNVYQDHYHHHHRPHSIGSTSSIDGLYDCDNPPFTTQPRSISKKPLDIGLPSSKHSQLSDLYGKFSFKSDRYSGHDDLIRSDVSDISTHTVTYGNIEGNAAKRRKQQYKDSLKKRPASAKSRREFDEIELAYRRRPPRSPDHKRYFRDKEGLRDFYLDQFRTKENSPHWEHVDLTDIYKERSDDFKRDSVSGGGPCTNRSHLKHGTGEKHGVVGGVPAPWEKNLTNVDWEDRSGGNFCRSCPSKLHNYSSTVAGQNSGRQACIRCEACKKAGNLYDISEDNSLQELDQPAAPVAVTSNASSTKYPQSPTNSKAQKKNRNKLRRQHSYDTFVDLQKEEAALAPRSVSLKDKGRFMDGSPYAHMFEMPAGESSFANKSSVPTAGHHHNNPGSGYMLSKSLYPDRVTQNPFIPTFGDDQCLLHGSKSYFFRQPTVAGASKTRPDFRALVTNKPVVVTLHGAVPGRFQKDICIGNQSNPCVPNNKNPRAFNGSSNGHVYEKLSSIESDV

With `Oc1ccc([C@@H](O)[C@@H]2CC[C@@H](CCc3ccccc3)N2)cc1` (racemic) [Example 1, 4-[(RS)-hydroxy-[(2SR,5RS)-5-phenethyl-pyrrolidin-2-yl]-methyl]-phenol], the IC50 (usually the concentration at which inhibition is half-maximal) in assay [1] was found to be 20 nM.

On to `COc1ccc(CC[C@H]2CC[C@@H]([C@H](O)c3ccc(O)c(F)c3)N2)cc1` (racemic) [Example 2, 2-fluoro-4-[(RS)-hydroxy-[(2SR,5SR)-5-[2-(4-methoxy-phenyl)-ethyl]-pyrrolidin-2-yl]-methyl]-phenol], for which the IC50 in assay [1] was found to be 30 nM.

The compound `COc1ccc(CC[C@@H]2CC[C@H](Cc3ccc(O)cc3)N2)cc1` (racemic) [Example 4, (2RS,5RS)-4-[5-[2-(4-methoxy-phenyl)-ethyl]-pyrrolidin-2-ylmethyl]-phenol] showed a half-maximal inhibitory concentration (IC50) in assay [1] of 40 nM.

On to `Oc1ccc([C@@H](O)[C@@H]2CC[C@@H](CCc3ccccc3)N2)cc1O` (racemic) [Example 5, 4-[(RS)-hydroxy-[(2SR,5RS)-5-phenethyl-pyrrolidin-2-yl]-methyl]-benzene-1,2-diol], for which the half-maximal inhibitory concentration (IC50) in assay [1] came out at 40 nM.

On to `COc1ccc(CC[C@@H]2CCC[C@H](Cc3ccc(O)cc3)N2)cc1` (racemic) [Example 6, (2RS,6SR)-4-[6-[2-(4-methoxy-phenyl)-ethyl]-piperidin-2-ylmethyl]-phenol], for which the IC50 in assay [1] worked out at 45 nM.

In turn, `COc1ccc(CCC2CCC(C(=O)c3ccc(O)cc3)N2)cc1` (racemic) [Example 7, Mixture of (2RS,5RS)-- and (2RS,5SR)-(4-hydroxy-phenyl)-[5-[2-(4-methoxy-phenyl)-ethyl]-pyrrolidin-2-yl]-methanone] came in with an IC50 in assay [1] of 70 nM.

Regarding `Oc1ccc([C@H]2OCCN3[C@@H](CCc4ccccc4)CC[C@H]23)cc1` (racemic) [Example 35, (1RS,6SR,8aRS)-4-(6-phenethyl-hexahydro-pyrrolo[2,1-c][1,4]oxazin-1-yl)-phenol], the 50% inhibitory concentration (IC50) in assay [1] was 90 nM.

In assay [1], `Oc1ccc([C@H]2OCN3[C@H](CCc4ccccc4)CC[C@@H]23)cc1` (racemic) [Example 37, (1RS ,5RS,7aSR)-4-(5-phenethyl-tetrahydro-pyrrolo[1,2-c]oxazol-1-yl)-phenol] yielded an IC50 of 50 nM.

In turn, `COc1ccc(CC[C@@H]2CCC[C@H](C(O)c3ccc(O)cc3)N2)cc1` (stereo partly shown) [Example 3] came in with an IC50 in assay [1] of 30 nM.

For `C[C@@H](CN1CCC(Cc2ccccc2)CC1)[C@@H](O)c1ccc(O)cc1` [RO 25-6981, [R-(R*,S*)]-a-(4-Hydroxy-phenyl)-b-methyl-4-(phenyl-methyl)-1-piperidine propanol], the “demonstration of NMDA receptor block (in words)” value with NMDA receptors is on record as “highly selective, activity-dependent blocker of NMDA receptors”.

Source of the values: patent US6153624A, “Pyrrolidine and piperidine derivatives and treatment of neurodegenerative disorders” (Hoffman-LaRoche Inc., priority 1998, dated 2000).
